{"source": "patent US20220079915A1", "about": "“IMMUNOSUPPRESSIVE PHARMACEUTICAL COMPOSITION AND APPLICATION THEREOF” (Shanghai Archeus Biotech Co., Ltd., priority 2018, published 2022)", "test_system": "THP-1 cells", "experiment": "THP-1 cell viability assay (MTT)", "type": "cell-based, human", "settings": "groups with or without the compound; FIG. 3", "procedure": "1) Recoveried and expanded THP-1 cells in a T75 culture flask. The growth medium was 10 milliliters of 10% fetal bovine serun/RPMI1640 (already containing 2 mM glutamine)/1% double antibiotics in each flask. […]", "data": [{"smiles": "C=C[C@@]1(C)CC(=O)C2(O)[C@@]3(C)C(O)CCC(C)(C)C3[C@H](OC(=O)CCN(C)C)[C@H](OC(C)=O)[C@@]2(C)O1.Cl", "note": "(stereo partly shown) [6-[3-(dimethylamino)propionyl]forskolin hydrochloride]", "values": [{"measurement": "cell viability", "value": "no significant difference"}]}]}
